Laboratory results from publication PMC4210897, “Antimicrobial Activity of Peptides Derived from Olive Flounder Lipopolysaccharide Binding Protein/Bactericidal Permeability-Increasing Protein (LBP/BPI)” (Marine Drugs, 2014).
Where no end group is shown, it is not given here.

What was measured:
[1] = tested on: human red blood cells (RBCs, blood type O); assay: Hemolytic activity assay; format: cell-based; details: 3% hematocrit, 60 min, 37 °C; for Hemolysis against RBCs up to 100 μg/mL: A405, up to concentrations of 100 μg/mL, triplicate averaged
Description: The hemolytic activity of the peptides was determined using human red blood cells (RBCs, blood type O). The RBCs were collected from citric acid-treated blood by centrifugation at 3000× g for 5 min and washed three times with 10 mM PB (pH 7.4) containing 150 mM NaCl to remove the plasma and buffy coat. A suspension of 3% hematocrit in buffer with or without peptides was incubated for 60 min at 37 °C. Hemolysis was expressed as the hemoglobin content obtained from the absorbance of the supernatant at 405 nm after centrifugation at 3000× g for 5 min. A 100% hemolysis was determined based on hemoglobin release after the addition of 0.1% Triton X-100. The hemolysis percentage of the peptides was calculated using the following formula: % Hemolysis = [(Abs405nm in the peptide solution − Abs405nm in buffer)/(Abs405nm in 0.1% Triton X-100 − Abs405nm in buffer)] × 100
Hemolytic assays were performed in triplicate and the results were averaged.

S. iniae = assay: URDA of non-heated and heated peptides; format: cell-based, Streptococcus iniae; details: non-heated and after 100 °C for 10 min
Description: (§1) The antimicrobial activity of the purified peptide was assessed as described previously. We tested the synthetic peptides against several Gram-positive bacteria including two Bacillus subtilis strains, Micrococcus luteus, Staphylococcus aureus, and Streptococcus iniae, Gram-negative bacteria including three Escherichia coli strains, Aeromonas hydrophila, Edwardsiella tarda, Pseudomonas aeruginosa, Vibrio parahemolyticus, and Salmonella enteric, as well as the yeast Candida albicans. All strains were grown overnight for 18 h in trypticase soy broth (TSB) or sabouraud dextrose broth (SDB) at the appropriate temperature (25 °C for A. hydrophila, E. tarda, P. aeruginosa, S. iniae, and V. parahemolyticus and 37 °C for the other strains). After an overnight incubation, the bacterial and C. albicans suspensions were diluted to a McFarland turbidity standard of 0.5 (Vitek Colorimeter #52-1210; Hach, Loveland, CO, USA) corresponding to ~10^8 CFU/mL for bacteria and ~10^6 CFU/mL for C. albicans. One-half milliliter of diluted bacterial or C. albicans suspension was added to 9.5 mL of underlay gel containing 5 × 10^6 CFU/mL or 5 × 10^4 CFU/mL in 10 mM phosphate buffer (PB; pH 6.6) with 0.03% TSB or 0.03% SDB and 1% Type I (low EEO) agarose. The purified peptide was serially diluted twofold in 5 μL of acidified water (0.01% HAc), and each dilution was added to 2.5-mm-diameter wells made in the 1-mm-thick underlay gels. After incubation for 3 h at either 25 °C (for A. hydrophila, E. tarda, P. aeruginosa, S. iniae, and V. parahemolyticus) or 37 °C (the other strains), the bacterial or yeast suspension was overlaid with 10 mL of double-strength overlay gel containing 6% TSB or 6% SDB with 10 mM PB (pH 6.6) in 1% agarose. Plates were incubated for an additional 18–24 h, after which the clearing zone diameters were measured. After subtracting the diameter of the well, the clearing zone diameter was expressed in units (0.1 mm = 1 U).
(§2) To investigate the effect of temperature on ofLBP analogs, antimicrobial activity was tested using an ultrasensitive radial diffusion assay (URDA) against two bacteria including V. harveyi and S. iniae, as well as a yeast, C. albicans. To explore thermal stability, the ofLBP analogs were incubated at 100 °C for 10 min. After heat treatment, the peptides were cooled and used for URDA as described above.

C. albicans = assay: URDA of non-heated and heated peptides; format: cell-based, Candida albicans; details: non-heated and after 100 °C for 10 min
Description: as §1, §2

λ-HindIII-digested DNA = assay: DNA-binding assay (gel retardation, EMSA); details: λ-HindIII-digested DNA 50 ng, 5 min room temperature, 1.0% agarose; for Electrophoretic mobility of DNA at 0.625 μg peptide: peptide 0.625 μg
Description: DNA binding assays were performed as described previously with minor modifications. This test assessed peptide-DNA binding by examining the inhibition of the rate of migration of DNA bands through agarose gels. A commercial molecular weight marker, λ-HindIII-digested DNA (50 ng) (Roche, Basel, Switzerland), was mixed with varying amounts of peptide (0 μg, 0.156 μg, 0.313 μg, 0.625 μg, and 1.25 μg) in 0.01% acetic acid, incubated at room temperature for 5 min, and then electrophoresed in 1.0% agarose gels containing 0.5 μg/mL ethidium bromide (EtBr).

DNA polymerase = details: PCR of E. coli 16S rDNA; for DNA polymerase inhibitory ability: 100 ng genomic DNA, 30 cycles
Description: The ofLBP analogs were dissolved in 0.01% acetic acid at a concentration of 1000 μg/mL. To assess PCR inhibition, various concentrations of the ofLBP analogs (2.5, 1.25, 0.625, and 0.313 μg/mL) were added to the respective reaction mixtures. E. coli genomic DNA (100 ng) was used as a template for PCR with the following primer pairs: 16S-F1, 5′-[…]-3′ and 16S-R3, 5′-[…]-3′. The predicted amplicon is ~1.5 kb in length. Each PCR comprised 30 cycles each of 30 s at 95 °C, 30 s at 55 °C, and 1 min at 72 °C. After PCR, all amplicons were electrophoresed in 1.0% agarose gels containing EtBr.

E. coli D31 = assay: URDA, MEC; format: cell-based, Escherichia coli; details: E. coli D31, Gram −, pH 6.6, 37 °C, triplicate averaged
Description: as §1
All tested bacteria and yeast were prepared as described above. The minimal effective concentration (MEC, μg/mL) of the synthetic peptides was calculated as the x-intercept of a plot of units against the log10 of the peptide concentration. […] The antimicrobial assay was performed in triplicate and the results were averaged.

B. subtilis KCTC1021 = assay: Killing kinetic assay; format: cell-based, Bacillus subtilis; details: 10^6 CFU/mL, 37 °C, triplicate averaged
Description: (§3) To determine the killing activities of ofLBP-derived analogs, kinetic studies were performed using B. subtilis KCTC1021 and E. coli ML35p at 1× MEC and 5× MEC concentrations. Overnight culture of B. subtilis KCTC1021 and E. coli ML35p were diluted in TBS to a cell density of 10^6 CFU/mL and 1 mL of each suspension was exposed to each ofLBP-derived analog and incubated at 37 °C overnight. The resulting colonies were counted. Percent killing was calculated as the proportion of live bacteria at a given time point following the addition of peptide compared to the number of bacteria present prior to the addition of peptide. Control cultures of each bacterium were incubated without any peptide and assayed at time points corresponding to the test culture assays to ensure no spontaneous loss of viability. Killing kinetic assays were also performed in triplicate, and the results were averaged.

E. coli ML35p = assay: Killing kinetic assay; format: cell-based, Escherichia coli; details: 10^6 CFU/mL, 37 °C; for Time to kill E. coli ML35p at 5× MEC: triplicate averaged
Description: as §3

Row | Substance | Hemolysis against RBCs up to 100 μg/mL [1] | Antimicrobial activity against S. iniae (URDA) (S. iniae) | Antimicrobial activity against C. albicans (URDA) (C. albicans) | Electrophoretic mobility of DNA at 0.625 μg peptide (λ-HindIII-digested DNA) | Electrophoretic mobility of DNA at 1.25 μg peptide (λ-HindIII-digested DNA; peptide 1.25 μg) | DNA polymerase inhibitory ability (DNA polymerase) | Minimal Effectives Concentration (E. coli D31) [µg/mL] | DNA polymerase inhibition at 1.25 μg (DNA polymerase; 1.25 μg peptide, compared to ofLBP 6A) | Hemolytic activity at 50 μg/mL [1] | Time to kill B. subtilis KCTC1021 at 1× MEC (B. subtilis KCTC1021) [min] | Time to kill B. subtilis KCTC1021 at 5× MEC (B. subtilis KCTC1021) [min] | Killing of E. coli ML35p at 1× MEC (E. coli ML35p) | Time to kill E. coli ML35p at 5× MEC (E. coli ML35p) [min] | DNA polymerase inhibition at all tested concentrations (DNA polymerase; 0.313–2.5 μg peptide) | Hemolytic activity from 50–100 μg/mL ([1]; concentrations of 50–100 μg/mL, 100% = 0.1% Triton X-100)
1 | KLVKTQLKVLK [ofLBP 4N] | did not cause hemolysis | did not show any antimicrobial activity | did not show any antimicrobial activity | slightly inhibited | almost completely inhibited | no DNA polymerase inhibitory ability | – | – | – | – | – | – | – | – | –
2 | KLVKTWLKVLK [ofLBP 5A] | did not cause hemolysis | – | significant activity | almost completely inhibited | – | strong DNA polymerase inhibitory ability | 0.9 | less inhibitory activity | – | – | – | – | – | – | –
3 | MKLVKTWLKVLK-NH2 [ofLBP 6A] | – | significant activity | significant activity | almost completely inhibited | – | strong DNA polymerase inhibitory ability | 2.6 | – | did not show significant hemolytic activity | ≤ 40 | ≤ 10 | did not kill | ≤ 60 | complete inhibitory activity | –
4 | Piscidin 1 [reference compound] | – | – | – | – | – | – | 2.0 | – | – | ≤ 40 | ≤ 10 | did not kill | ≤ 40 | – | –
5 | RFPGLMMKLLV-NH2 (C-terminus assumed) [ofLBP 1N] | – | significant activity | significant activity | – | – | – | 1.3 | – | did not show significant hemolytic activity | – | – | – | – | – | –
6 | RFPKLMMKLLV-NH2 [ofLBP 2A] | – | significant activity | significant activity | – | – | – | 0.5 | – | did not show significant hemolytic activity | – | – | – | – | – | 28%–50%
